Source: patent US8785486B2, “Imidazo[1,2-A]pyridine derivatives and their use as positive allosteric modulators of mGluR2 receptors” (Janssen Pharmaceuticals, Inc., priority 2007, dated 2014)

Key:
[1] = target: T1, human mGluR2 receptor (Homo sapiens, UniProt Q14416); test: [35S]GTPγS binding assay (PAM assay) using membranes from cells transfected with the human mGluR2 receptor; type: biochemical; conditions: membranes of CHO cells with human mGluR2, glutamate at predetermined EC25 concentration, averages of duplicate values of 11-concentration response curves; for EC50: read-out: GTPγS - hR2 PAM pEC50 (converted)
T1 construct: expressed in transfected cells; host or cells: CHO cells
T1 sequence (Q14416 19-872): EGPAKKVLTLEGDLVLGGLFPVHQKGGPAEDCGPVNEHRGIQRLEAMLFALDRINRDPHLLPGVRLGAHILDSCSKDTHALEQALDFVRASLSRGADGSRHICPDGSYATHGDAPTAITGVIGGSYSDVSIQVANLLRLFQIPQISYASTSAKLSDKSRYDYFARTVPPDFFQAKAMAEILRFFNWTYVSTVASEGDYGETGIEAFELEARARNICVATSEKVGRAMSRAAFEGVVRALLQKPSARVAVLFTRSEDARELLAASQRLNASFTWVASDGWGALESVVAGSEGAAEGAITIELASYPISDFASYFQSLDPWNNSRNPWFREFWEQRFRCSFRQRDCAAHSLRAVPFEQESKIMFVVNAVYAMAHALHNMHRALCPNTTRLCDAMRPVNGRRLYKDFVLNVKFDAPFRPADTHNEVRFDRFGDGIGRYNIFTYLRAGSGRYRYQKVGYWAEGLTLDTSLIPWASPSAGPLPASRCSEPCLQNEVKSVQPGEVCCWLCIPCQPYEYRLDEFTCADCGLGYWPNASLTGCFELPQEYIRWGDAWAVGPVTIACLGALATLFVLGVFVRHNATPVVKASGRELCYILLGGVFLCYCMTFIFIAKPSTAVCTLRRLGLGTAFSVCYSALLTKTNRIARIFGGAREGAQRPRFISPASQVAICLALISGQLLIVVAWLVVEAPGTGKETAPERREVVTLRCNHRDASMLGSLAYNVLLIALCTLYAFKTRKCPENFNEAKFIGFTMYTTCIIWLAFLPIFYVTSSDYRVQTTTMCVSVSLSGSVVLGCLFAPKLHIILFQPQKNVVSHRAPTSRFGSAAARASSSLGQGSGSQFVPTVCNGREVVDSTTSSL
Method: The [^35S]GTPγS binding assay is a functional membrane-based assay used to study G-protein coupled receptor (GPCR) function whereby incorporation of a non-hydrolysable form of GTP, [^35S]GTPγS (guanosine 5′-triphosphate, labelled with […] ^35S), is measured.
CHO-cells were cultured to pre-confluence and stimulated with 5 mM butyrate for 24 hours, prior to washing in PBS, and then collection by scraping in homogenisation buffer (50 mM Tris-HCl buffer, pH 7.4, 4° C.). Cell lysates were homogenized briefly (15 s) using an ultra-turrax homogenizer. The homogenate was centrifuged at 23 500×g for 10 minutes and the supernatant discarded. The pellet was resuspended in 5 mM Tris-HCl, pH 7.4 and centrifuged again (30 000×g, 20 min, 4° C.). The final pellet was resuspended in 50 mM HEPES, pH 7.4 and stored at −80° C. in appropriate aliquots before use. Protein concentration was determined by the Bradford method (Bio-Rad, USA) with bovine serum albumin as standard.
Measurement of mGluR2 positive allosteric modulatory activity of test compounds in membranes containing human mGluR2 was performed using frozen membranes that were thawed and briefly homogenised prior to pre-incubation in 96-well microplates (15 μg/assay well, 30 minutes, 30° C.) in assay buffer (50 mM HEPES pH 7.4, 100 mM NaCl, 3 mM MgCl2, 50 μM GDP, 10 μg/ml saponin,) with increasing concentrations of positive allosteric modulator (from 0.3 nM to 50 μM) and either a minimal pre-determined concentration of glutamate (PAM assay), or no added glutamate. […] After addition of [^35S]GTPγS (0.1 nM, f.c.) to achieve a total reaction volume of 200 μl, microplates were shaken briefly and further incubated to allow [^35S]GTPγS incorporation on activation (30 minutes, 30° C.). The reaction was stopped by rapid vacuum filtration over glass-fibre filter plates (Unifilter 96-well GF/B filter plates, Perkin-Elmer, Downers Grove, USA) microplate using a 96-well plate cell harvester (Filtermate, Perkin-Elmer, USA), and then by washing three times with 300 μl of ice-cold wash buffer (Na2PO4.2H2O 10 mM, NaH2PO4.H2O 10 mM, pH=7.4). Filters were then air-dried, and 40 μl of liquid scintillation cocktail (Microscint-O) was added to each well, and membrane-bound [^35S]GTPγS was measured in a 96-well scintillation plate reader (Top-Count, Perkin-Elmer, USA). Non-specific [^35S]GTPγS binding is determined in the presence of cold 10 μM GTP. Each curve was performed at least once using duplicate sample per data point and at 11 concentrations.
The concentration-response curves of representative compounds of the present invention in the presence of added EC25 of mGluR2 agonist glutamate to determine positive allosteric modulation (PAM), were generated using the Prism GraphPad software (Graph Pad Inc, San Diego, USA). The curves were fitted to a four-parameter logistic equation (Y=Bottom+(Top-Bottom)/(1+10^((Log EC50−X)*Hill Slope) allowing determination of EC50 values. The EC50 is the concentration of a compound that causes a half-maximal potentiation of the glutamate response. This is calculated by subtracting the maximal responses of glutamate in presence of a fully saturating concentration of a positive allosteric modulator from the response of glutamate in absence of a positive allosteric modulator. The concentration producing the half-maximal effect is then calculated as EC50

Compound | EC50 [1] | melting point | GTPγS - hR2 PAM pEC50 [1]
Fc1ccccc1C1CCN(Cc2ccn3c(CC(F)(F)F)cnc3c2Cl)CC1 [Example 41] | 437 nM | 161.1 °C | –
CC(O)(c1ccccc1)c1ccc(-c2ccn3c(CC(F)(F)F)cnc3c2C#N)cc1 (centres unmarked) [Example 81] | 525 nM | 102.7 °C | –
N#Cc1c(N2CCN(c3ncccn3)CC2)ccn2c(CC(F)(F)F)cnc12 [Example 2, 7-(4-Pyrimidin-2-yl-piperazin-1-yl)-3-(2,2,2-trifluoro-ethyl)-imidazo[1,2-a]pyridine-8-carbonitrile] | – | 239 °C | 6.07
CCc1cnc2c(C#N)c(N3CCN(c4nc(C)cc(C)n4)CC3)ccn12 [Example 19] | – | 231.4 °C | 5.64
FC(F)(F)Cc1cnc2c(Cl)c(CN3CCC4(CC3)OCc3ccccc34)ccn12 [Example 123] | – | 164.2 °C | –
N#Cc1c(N2CCC(c3ccccc3)CC2)ccn2c(CCC3CC3)cnc12 [Example 48] | 93.3 nM | 145.4 °C | –
CCCc1cnc2c(C#N)c(N3CCC(c4ccccc4)CC3)ccn12 [Example 6] | – | 161 °C | 6.81
FC(F)(F)Cc1cnc2c(Cl)c(CN3CCC(F)(c4ccccc4)CC3)ccn12 [Example 35] | 603 nM | 154.8 °C | –
N#Cc1c(-c2ccc(COc3cccc(F)c3)cc2)ccn2c(CC(F)(F)F)cnc12 [Example 114] | 141 nM | 207.1 °C | –
N#Cc1c(-c2ccc(Oc3ccccc3F)cc2)ccn2c(CC(F)(F)F)cnc12 [Example 77] | 105 nM | 177.9 °C | –
N#Cc1c(-c2ccc(Sc3ccccc3)cc2)ccn2c(CC(F)(F)F)cnc12 [Example 71] | 182 nM | 195.6 °C | –
FC(F)(F)Cc1cnc2c(Cl)c(N3CCC(F)(c4ccccc4)CC3)ccn12 [Example 50, 8-Chloro-7-(4-fluoro-4-phenyl-piperidin-1-yl)-3-(2,2,2-trifluoro-ethyl)-imidazo[1,2-a]pyridine] | 195 nM | 220.7 °C | –
FC(F)(F)Cc1cnc2c(Cl)c(N3CCC(c4ccccc4)CC3)ccn12 [Example 51, 8-Chloro-7-(4-phenyl-piperidin-1-yl)-3-(2,2,2-trifluoro-ethyl)-imidazo[1,2-a]pyridine] | 158 nM | 263.1 °C | –
N#Cc1c(-c2ccc(Oc3cccc(F)c3)cc2)ccn2c(CC(F)(F)F)cnc12 [Example 78] | 219 nM | 176 °C | –
N#Cc1c(-c2ccc(Oc3ccccc3)cc2)ccn2c(CC(F)(F)F)cnc12 [Example 80] | – | 174.3 °C | 6.73
N#Cc1c(CN2CCC(F)(c3ccccc3)CC2)ccn2c(CC(F)(F)F)cnc12 [Example 40] | 1290 nM | 145 °C | –
FC(F)(F)Cc1cnc2c(Cl)c(CN3CCN(c4ncccn4)CC3)ccn12 [Example 36, 8-Chloro-7-(4-pyrimidin-2-yl-piperazin-1-ylmethyl)-3-(2,2,2-trifluoro-ethyl)imidazo[1,2-a]pyridine] | – | 161.4 °C | –
C[C@]1(O)CC[C@H](Nc2ccc(-c3ccn4c(CC(F)(F)F)cnc4c3Cl)cc2Cl)CC1 [Example 100, (trans)-4-{2-Chloro-4-[8-chloro-3-(2,2,2-trifluoro-ethyl)-imidazo[1,2-a]pyridin-7-yl]-phenylamino}-1-methyl-cyclohexanol] | 126 nM | 205.1 °C | –
N#Cc1c(N2CCC(c3ccccc3F)CC2)ccn2c(CC(F)(F)F)cnc12 [Example 31] | 81.3 nM | 139.3 °C | –
N#Cc1c(N2CCC(O)(c3ccccc3)CC2)ccn2c(CC(F)(F)F)cnc12 [Example 30] | 417 nM | 272.1 °C | –
CCCc1cnc2c(C#N)c(-c3ccc(Oc4cccnc4C)cc3)ccn12 [Example 9] | 316 nM | 159 °C | –

Compound | EC50 [1] | melting point | GTPγS - hR2 PAM pEC50 [1]
N#Cc1c(CN2CCC(c3ccccc3F)CC2)ccn2c(CC(F)(F)F)cnc12 [Example 44] | 324 nM | 152 °C | –
N#Cc1c(N2CCN(c3ccccc3)CC2)ccn2c(-c3ccccc3)cnc12 [Example 20] | – | 220 °C | –
N#Cc1c(CN2CCC(O)(c3ccc(F)cc3)CC2)ccn2c(CC(F)(F)F)cnc12 [Example 38] | – | 181.2 °C | –
CCc1cnc2c(C#N)c(-c3ccc(Oc4ccnc(C)c4)c(F)c3)ccn12 [Example 25] | – | 197.6 °C | –
CCCc1cnc2c(C#N)c(N3CCN(c4ccccc4)CC3)ccn12 [Example 15] | – | 148.2 °C | 6.01
COc1cccc(C2(O)CCN(Cc3ccn4c(CC(F)(F)F)cnc4c3C#N)CC2)c1 [Example 43] | – | 196 °C | –
Fc1ccc(N2CCN(Cc3ccn4c(CC(F)(F)F)cnc4c3Cl)CC2)c(F)c1 [Example 37] | 3020 nM | 156.9 °C | –
N#Cc1c(-c2ccc(O[C@H]3CC[C@@H](O)CC3)c(Cl)c2)ccn2c(CC(F)(F)F)cnc12 [Example 103] | 933 nM | 210.2 °C | –
N#Cc1c(-c2ccc(N[C@H]3CC[C@H](O)CC3)c(Cl)c2)ccn2c(CC(F)(F)F)cnc12 [Example 96, (trans)-7-[3-Chloro-4-(4-hydroxy-cyclohexylamino)-phenyl]-3-(2,2,2-trifluoro-ethyl)-imidazo[1,2-a]pyridine-8-carbonitrile] | 295 nM | 123.7 °C | –
CCCc1cnc2c(C#N)c(N3CCC(O)(c4ccccc4)CC3)ccn12 [Example 8] | 316 nM | 201.1 °C | –
CC(C)(O)c1ccc(Oc2ccc(-c3ccn4c(CC(F)(F)F)cnc4c3C#N)cc2)cc1 [Example 82] | 44.7 nM | 143.2 °C | –
C[C@]1(O)CC[C@H](Nc2ccc(-c3ccn4c(CC(F)(F)F)cnc4c3C#N)cc2Cl)CC1 [Example 94] | 174 nM | 202.6 °C | –
N#Cc1c(N2CCC3(CC2)OCc2ccccc23)ccn2c(CC(F)(F)F)cnc12 [Example 58] | 97.7 nM | 212.9 °C | –
Cc1c(N2CCC(c3ccccc3)CC2)ccn2c(CC(F)(F)F)cnc12 [Example 64] | 1550 nM | 213.9 °C | –
CC(C)(O)c1ccccc1C1CCN(c2ccn3c(CC(F)(F)F)cnc3c2Cl)CC1 [Example 65, 2-(2-{1-[8-Chloro-3-(2,2,2-trifluoro-ethyl)-imidazo[1,2-a]pyridin-7-yl]-piperidin-4-yl}-phenyl)-propan-2-ol] | 178 nM | 234.7 °C | –
CCc1cnc2c(C#N)c(N3CCC(c4ccccc4)CC3)ccn12 [Example 12] | – | 150 °C | 6.30
Cc1cc(C)nc(N2CCN(c3ccn4c(CC(F)(F)F)cnc4c3C#N)CC2)n1 [Example 34] | – | > 300 °C | 6.35
Fc1ccccc1N1CCN(Cc2ccn3c(CC(F)(F)F)cnc3c2Cl)CC1 [Example 46] | 1740 nM | 150.2 °C | –
CC(C)(O)c1ccc(C2CCN(c3ccn4c(CC(F)(F)F)cnc4c3C#N)CC2)cc1 [Example 54] | 240 nM | 155.4 °C | –
Cc1cc(Oc2ccc(-c3ccn4c(CCCC(F)(F)F)cnc4c3C#N)cc2F)ccn1 [Example 73] | 1050 nM | 234.1 °C | –
CCCc1cnc2c(C#N)c(N3CCN(c4ncccn4)CC3)ccn12 [Example 22] | – | 176.4 °C | –
